Data published in PubChem BioAssay (NCI).
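Where inhibition never reached the appropriate level, the endpoint shown equals the highest concentration tested. Otherwise, values were interpolated linearly from a five-concentration, 48-hour dose response in 96-well plates. TGI denotes the concentration required for complete inhibition of growth.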

Tests used:
Experiment in all cases: growth of human tumour cells (NCI), 48 h
[1] = system: 786-0 renal
[2] = system: A498 renal
[3] = system: A549 NSCLC
[4] = system: ACHN renal
[5] = system: CAKI-1 renal
[6] = system: CCRF-CEM leukemia
[7] = system: COLO 205 colon
[8] = system: DU-145 prostate
[9] = system: EKVX NSCLC
[10] = system: HCC-2998 colon
[11] = system: HCT-116 colon
[12] = system: HCT-15 colon
[13] = system: HL-60(TB) leukemia
[14] = system: HOP-62 NSCLC
[15] = system: HOP-92 NSCLC
[16] = system: HS 578T breast
[17] = system: HT29 colon
[18] = system: IGROV1 ovarian
[19] = system: K-562 leukemia
[20] = system: KM12 colon
[21] = system: LOX IMVI melanoma
[22] = system: M14 melanoma
[23] = system: MALME-3M melanoma
[24] = system: MCF7 breast
[25] = system: MDA-MB-231 breast
[26] = system: MDA-MB-435
[27] = system: MDA-N
[28] = system: MOLT-4 leukemia
[29] = system: NCI-H226 lung
[30] = system: NCI-H23 lung
[31] = system: NCI-H460 lung
[32] = system: NCI-H522 lung
[33] = system: NCI/ADR-RES ovarian
[34] = system: OVCAR-3 ovarian
[35] = system: OVCAR-4 ovarian
[36] = system: OVCAR-5 ovarian
[37] = system: OVCAR-8 ovarian
[38] = system: PC-3 prostate
[39] = system: RPMI-8226 leukemia
[40] = system: RXF 393 renal
[41] = system: SF-268 CNS
[42] = system: SF-295 CNS
[43] = system: SF-539 CNS
[44] = system: SK-MEL-2 melanoma
[45] = system: SK-MEL-28 melanoma
[46] = system: SK-MEL-5 melanoma
[47] = system: SK-OV-3 ovarian
[48] = system: SN12C renal
[49] = system: SNB-19 CNS
[50] = system: SNB-75 CNS
[51] = system: SR leukemia
[52] = system: SW-620 colon
[53] = system: T-47D breast
[54] = system: TK-10 renal
[55] = system: U251 CNS
[56] = system: UACC-257 melanoma
[57] = system: UO-31 renal

Measured: TGI

O=C1OCC=C1COC1OC(CO)C(O)C(O)C1O (configuration not stated)
39.3 µM: [32]
> 100 µM: [1] | [2] | [3] | [4] | [5] | [6] | [7] | [8] | [9] | [10] | [11] | [12] | [13] | [14] | [15] | [16] | [17] | [18] | [19] | [20] | [21] | [22] | [23] | [24] | [25] | [26] | [27] | [28] | [29] | [30] | [31] | [33] | [34] | [35] | [36] | [37] | [38] | [39] | [40] | [41] | [42] | [43] | [44] | [45] | [46] | [47] | [48] | [49] | [50] | [51] | [52] | [53] | [54] | [55] | [56] | [57]
